Experiments:
Design in all cases: species or system cattle
[1] = Colour L*, a*, b* of treated ground beef, low oxygen packaging (Example 5); conditions: low oxygen packaging
From the text: Beef M. semimembranosus (M.S.) and beef fat tissue were collected four days post mortem (Fatland A/S, Oslo, Norway). The packaging day is defined as day zero, however, the tissues were 4 days post mortem on packing day. A piece of meat from proximal end was cut from each muscle in order to measure oxygen consumption, pH and surface colour. Fat tissue from pigs fed rapeseed and vitamin E to enhance the content of polyunsaturated fatty acids were from HKScan (Ruokatalo, Finland). The fat tissue was transported vacuum-packaged and frozen. Samples of minced fat tissue were removed for fatty acid analysis.
The beef muscles were cut into pieces of approximately 10×5 cm and mixed to 14% w/w fat by using the fat tissues. Beef fat and pork fat tissues were ground twice with either raw beef from four young (16-19 months) or four old (46-81 months) cattle. […] The ground meat was blended manually with solutions (all at pH 5.8) with various TCA and glycolytic ingredients (see below).
To maintain pH at 5.8 the solutions were prepared by mixing the acid form and the corresponding sodium salt of these chemicals.
[…] The solution was quickly and properly stirred into the minced meat and the blended system was subsequently packaged. […] Two reference samples with 40 ml of distilled water added to 360 gram of ground beef were also prepared each of the four production day, i.e. altogether 8 references were prepared. The samples were packaged in either low or high oxygen atmosphere.
The ground beef was packaged in black amorphous polyethylene terephthalate (APET) trays that were sealed with ethylene vinyl alcohol (EVOH) top films. The trays and films (Wipak Multipet and Wipak Biaxer, both Wipak, Nastola, Finland) had oxygen transmission rates of 7 and 5 cm^3/m^2/24 h at 23° C. at 50% relative humidity. Packaging was carried out within 1 hour after grinding. The samples were stored in darkness at 4° C. for 8 days in a high-oxygen atmosphere (75% oxygen and 25% CO2) and for 13 days in a low-oxygen atmosphere (60% CO2 and 40% N2). These food grade gas mixtures were supplied by AGA (Oslo, Norway).
The colour of the ground meat samples was measured with a Konica Minolta Chroma Meter CR 410 (Konica Minolta Sensing Inc., Osaka, Japan) using the glass light projection tube CR A 33e with wide illumination area (61 mm) and illuminant D65. The instrument was calibrated each day by measuring a white ceramic plate (L*=97.9; a*=0.05; b*=2). All colour measurements were made with 3 replicates (CIE, 1976, “Recommendations on uniform colour spaces-colour difference equations” (Vol. Supplement No. 2 to CIE). Paris, France: Commission Internationale de l'Eclairage).
The colour of the samples packaged in high O2 was measured after 0, 1, 3, 6 and 8, days of storage from packaging day, while low O2 samples were measured at 0 to 13 days of storage using Minolta and reflectance measurements.
The experimental design is visualized in FIG. 5. A 2^2 design (animal age and type of fat tissue) was split over 4 experimental days (FIG. 5, and Tables 10 and 11). To each corner of this 2^2 design was added a 3 component (succinate, pyruvate and glutamate-malate additions; 0, 50 and 100%) simplex lattice mixture design with 2 additional centre experiments as shown in FIG. 5.

[2] = Colour (b*, a*) of minced beef mixed with test brines, stored in low-oxygen MAP (Examples 1-2); conditions: for b*: low oxygen (MAP), day 6 of storage, amount 1 = 0.1 mol per kg meat
Description: (§1) Beef fat and pork fat (high degree of unsaturation) were used with raw semimembranosus muscle from young and old cattle. Beef from the hind leg was removed, weighed, chopped, mixed with fat (14% by weight), and the various test compounds were added to the minced meat. The mixtures were packed into boxes and sealed with plastic sheeting. Packing was done with MAP to yield a low-oxygen atmosphere (60% CO2 and 40% N2) and also under a high-oxygen atmosphere (75% oxygen and 25% CO2). The samples were stored in darkness at 4° C. from 0 to 8 days for the high-oxygen atmosphere and 0 to 13 days for the MAP samples. A Cheers Packaging Machine (Promens) was used for packaging of samples. Triplicate reference samples with only 40 ml of distilled water mixed and packaged as described above were evaluated at days 6 and 8 for the high-oxygen environment and at days 6, 8, 10 and 13 for the MAP environment.
(§2) Samples of test compounds were prepared with succinate, glutamate, malate, pyruvate and citrate in different combinations, either as single chemicals or as mixtures. The acid and conjugate base of each active component was added in the appropriate ratio to provide the solutions (brines) with a pH of 5.8. As will be clear from the foregoing description, the “succinate” used in this experiment was a combination of succinic acid and sodium succinate. The “glutamate”, “malate”, etc. were used equivalently.
(§3) Meat and fat was cut into small pieces and minced (3 mm holes). 40 g of brine was added to 360 g mince and packed in the plastic packing.
(§4) Several variables were included in the design of the experiment, using a 2^3 factorial design. […] Malate and glutamate were considered together in the design and analysis, but their ratio was varied in the experiments from pure malate to pure glutamate.
(§5) Colour changes in the samples were measured with a FOSS NIRSystems™ 6500 analyser and a Konica Minolta Chroma meter CR 410 (Konica Minolta Sensing Inc., Osaka, Japan). Colour was measured using the parameters L*, a* and b* at 0, 1, 3, 6 and 8 days for samples stored in 75% oxygen. Colour changes of the samples packaged in MAP were measured at 0, 1, 3, 6, 8, 10 and 13 days of storage time.
Results from the experiments carried out on the various meat and fat samples are shown below in Tables 1 to 8. Values given for the amount of active agents in Tables 1 to 8 correspond to the molar proportion of the given agent within the brine/meat mixture, where a value of 1 corresponds to 0.1 moles active agent per kg of meat, a value of 0.5 corresponds to 0.05 mol/kg, etc. […] The b* values, which are considered to be most representative of the colour changes in the meat being tested, are shown. All results correspond to measurements made on day 6 of storage
The data from the experiment described in Example 1 were analyzed using an ANOVA model with all main effect and second and higher order effects according to the method described in Langsrud, Ø. (“50-50 Multivariate Analysis of Variance for Collinear Responses” The Statistician (2002) 51, pp. 305-317). […] The mixture design was fractional.

[3] = Colour (b*) of minced beef mixed with test brines, stored in high-oxygen atmosphere (Example 1); conditions: day 6 of storage, amount 1 = 0.1 mol per kg meat
Description: as §1, §2, §3, §4, §5
Results from the experiments carried out on the various meat and fat samples are shown below in Tables 1 to 8. Values given for the amount of active agents in Tables 1 to 8 correspond to the molar proportion of the given agent within the brine/meat mixture, where a value of 1 corresponds to 0.1 moles active agent per kg of meat, a value of 0.5 corresponds to 0.05 mol/kg, etc. […]
The data from the experiment described in Example 1 were analyzed using an ANOVA model with all main effect and second and higher order effects according to the method described in Langsrud, Ø. […]

[4] = old beef muscle mixed with beef fat
[5] = old beef muscle mixed with pork fat
[6] = young beef muscle mixed with pork fat

**Q.** For O=C(O)CC(O)C(=O)O (racemic) [malate], which “effect on yellowness (b*), in words” value [1] is on record?
**A.** The value was “nominally higher b* values”.

**Q.** Which “effect on redness (a*), in words” value [1] does the source give for N[C@@H](CCC(=O)O)C(=O)O [glutamate] here?
**A.** The value was “nominally higher a* values”.

**Q.** For O=C(O)CCC(=O)O [succinate 1.00, succinate], which “a*” value ([2]; low-oxygen environment, zero citrate, after 6 days storage, relative amounts of succinate, pyruvate, glutamate + malate) is on record?
**A.** The value was 9.81.

**Q.** And the “b*” value [2, 4]?
**A.** The value was 1.48.

**Q.** What about the “b*” value [2, 5] of the same molecule?
**A.** The value was 0.98.

**Q.** What about the “b*” value ([2]; young beef muscle mixed with beef fat, 4° C.) of the same molecule?
**A.** The value was 1.07.

**Q.** What about the “b*” value [2, 6] of the same molecule?
**A.** Its value is 1.34.

**Q.** What about the “b*” value [3, 4] of the same molecule?
**A.** The value was 3.45.

**Q.** And the “b*” value [3, 5]?
**A.** Its value is 3.77.

**Q.** And the “b*” value ([3]; young beef muscle mixed with beef fat)?
**A.** Its value is 4.01.

**Q.** What about the “b*” value [3, 6] of the same molecule?
**A.** Its value is 4.70.
